Measured values taken from PMC8586358 (Nature Communications, 2021).
Where “and” joins values, the source holds several entries; their conditions need not be identical. Identical values can stand only once. Like-named read-outs stand apart in the source and are kept apart here.

Legend:
[1] = biological target: T1, MAGL (Homo sapiens, UniProt Q99685); assay: 2-Arachidonoylglycerol-based fluorescence assay for DH-463; assay type: biochemical
T1 sequence (Q99685 1-303): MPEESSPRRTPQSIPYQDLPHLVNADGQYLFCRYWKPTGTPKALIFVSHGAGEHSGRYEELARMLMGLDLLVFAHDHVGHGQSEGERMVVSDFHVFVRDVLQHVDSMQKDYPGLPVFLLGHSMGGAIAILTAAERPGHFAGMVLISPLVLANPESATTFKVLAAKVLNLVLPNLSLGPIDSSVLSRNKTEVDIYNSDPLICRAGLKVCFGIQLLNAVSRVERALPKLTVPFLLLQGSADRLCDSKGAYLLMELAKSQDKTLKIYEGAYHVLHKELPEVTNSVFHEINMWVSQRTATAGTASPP
Method: The natural substrate assays were performed as reported previously[80],[81]. All chemicals and reagents were purchased from Sigma-Aldrich, unless mentioned otherwise. […] 2-Arachidonoylglycerol was from Cayman Chemical. All measurements were performed in n = 4 or n = 8 for controls, with Z’ ≥ 0.6.

[2] = biological target: T2, D3R (Homo sapiens, UniProt P35462); assay: BRET-based Gi1-activation assay in HEK 293T cells; assay type: cell-based
T2 construct: expressed in transfected cells; host or cells: HEK 293 (microscopy), HEK 293T (BRET)
T2 sequence (P35462 whole entry): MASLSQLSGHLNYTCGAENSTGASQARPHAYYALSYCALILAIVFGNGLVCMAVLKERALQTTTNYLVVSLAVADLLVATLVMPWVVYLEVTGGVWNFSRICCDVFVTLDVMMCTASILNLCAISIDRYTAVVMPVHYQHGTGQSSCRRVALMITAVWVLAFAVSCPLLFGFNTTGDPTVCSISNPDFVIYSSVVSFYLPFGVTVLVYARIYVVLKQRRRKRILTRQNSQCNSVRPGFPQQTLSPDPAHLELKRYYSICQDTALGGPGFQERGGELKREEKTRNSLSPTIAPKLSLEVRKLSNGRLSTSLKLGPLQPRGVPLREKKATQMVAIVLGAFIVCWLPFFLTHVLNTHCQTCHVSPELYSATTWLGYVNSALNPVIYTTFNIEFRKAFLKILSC
Excerpt: The next day we replaced the medium with modified Kreb’s Ringer medium and performed BRET experiments using a Thermo Scientific Varioskan Flash multimode plate reader similarly as previously described. […] To calculate the BRET response, we first subtracted the BRET ratio of cells coexpressing the untagged β1 subunit from the BRET ratio of cells coexpressing Venus-β1. Then we corrected the baseline BRET ratio and subtracted the BRET ratio of vehicle-treated cells from the average BRET ratio of stimulus-treated cells. All BRET measurements were performed in triplicates.

[3] = biological target: T3, D3R in the Islands of Calleja (Mus musculus, UniProt P30728); assay: In vivo competitive drug-binding measurement (cariprazine i.p., then Fluo-CAR labeling of acute slices); conditions: cariprazine 1 mg/kg i.p., 2 h
T3 construct: from tissue; host or cells: mouse brain (Islands of Calleja, ventral and dorsal striatum); acute slices or fresh-frozen cryosections
T3 sequence (P30728 whole entry): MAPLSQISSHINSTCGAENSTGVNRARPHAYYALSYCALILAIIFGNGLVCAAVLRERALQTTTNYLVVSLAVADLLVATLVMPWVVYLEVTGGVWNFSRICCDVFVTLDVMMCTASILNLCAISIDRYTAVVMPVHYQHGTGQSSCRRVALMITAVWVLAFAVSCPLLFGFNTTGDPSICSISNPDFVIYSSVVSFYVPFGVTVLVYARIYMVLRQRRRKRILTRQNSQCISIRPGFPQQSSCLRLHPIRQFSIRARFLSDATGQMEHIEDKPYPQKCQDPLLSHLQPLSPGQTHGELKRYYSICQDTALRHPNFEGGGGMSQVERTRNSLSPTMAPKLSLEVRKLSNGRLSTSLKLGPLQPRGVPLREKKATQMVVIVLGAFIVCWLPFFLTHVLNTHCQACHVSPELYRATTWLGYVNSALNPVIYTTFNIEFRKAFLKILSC
Method: Male 26–33-days-old C57BL/6 mice were intraperitoneally injected with 1 mg/kg cariprazine or an equal volume of vehicle (0.9% saline + 1% Tween80). After injection (2 h), pharmacological tissue labeling was carried out similarly to the previous experiments. […] Slices were rinsed three times with ACSF and fixed overnight with 4% PFA. Slices were either processed for correlated confocal and STORM imaging or for conventional confocal imaging.

[4] = biological target: T4, CB1R (Homo sapiens, UniProt P21554); assay: Ligand-binding assay, affinity of fluo-cannabinoid for CB1R (Supplementary Table S1)
T4 sequence (P21554 whole entry): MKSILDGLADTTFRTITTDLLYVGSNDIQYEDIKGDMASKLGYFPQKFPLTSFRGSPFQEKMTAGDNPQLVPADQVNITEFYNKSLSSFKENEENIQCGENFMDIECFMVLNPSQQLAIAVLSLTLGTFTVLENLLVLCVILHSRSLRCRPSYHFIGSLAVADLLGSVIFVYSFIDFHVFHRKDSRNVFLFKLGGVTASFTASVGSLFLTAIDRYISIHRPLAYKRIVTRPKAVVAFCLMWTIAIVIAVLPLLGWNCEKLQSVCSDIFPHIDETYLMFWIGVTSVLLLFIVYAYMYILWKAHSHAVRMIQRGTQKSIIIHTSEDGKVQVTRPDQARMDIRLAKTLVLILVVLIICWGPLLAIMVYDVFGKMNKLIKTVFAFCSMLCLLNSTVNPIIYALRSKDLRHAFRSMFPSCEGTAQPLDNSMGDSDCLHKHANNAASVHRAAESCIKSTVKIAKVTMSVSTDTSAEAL

[5] = biological target: T4, CB1R; assay type: cell-based; design: expressed in transfected cells; host or cells: HEK 293T; conditions: for cAMP reduction (%): single experiments
[6] = biological target: T5, D2R (Homo sapiens, UniProt P14416); assay: Fluo-cariprazine PharmacoSTORM signal in D2R-expressing cells (Supplementary Fig. S6d); assay type: binding
T5 construct: expressed in transfected cells; host or cells: HEK 293
T5 sequence (P14416 whole entry): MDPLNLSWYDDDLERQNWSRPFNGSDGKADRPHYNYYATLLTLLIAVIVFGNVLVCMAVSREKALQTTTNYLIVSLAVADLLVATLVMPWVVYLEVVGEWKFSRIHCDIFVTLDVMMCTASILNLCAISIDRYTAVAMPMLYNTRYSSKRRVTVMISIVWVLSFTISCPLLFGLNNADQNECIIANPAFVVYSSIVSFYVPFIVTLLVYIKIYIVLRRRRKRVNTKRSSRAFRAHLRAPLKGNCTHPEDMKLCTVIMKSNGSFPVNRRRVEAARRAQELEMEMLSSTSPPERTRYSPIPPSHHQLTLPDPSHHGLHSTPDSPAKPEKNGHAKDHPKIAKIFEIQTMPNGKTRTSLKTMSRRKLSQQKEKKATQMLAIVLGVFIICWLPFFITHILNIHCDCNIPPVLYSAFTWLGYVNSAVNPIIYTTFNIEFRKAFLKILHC
Excerpt: Generation of N-terminally EGFP-tagged mouse CB1R was previously described[8]. The coding sequence of monoacylglycerol lipase (MAGL) was amplified with mMGL_fw and mMGL_rev primers using a mouse brain cDNA library as a template. The PCR product was digested with HindIII and BamHI enzymes and cloned into pcDNA3.1 backbone. GFP-MGL was constructed by subcloning the open reading frame of MAGL into pAcGFP1-C1 vector following HindIII/BamHI digestion. […] The amplified DNA was inserted into pcDNA3.1 vector between the BamHI and XhoI restriction sites. TMEM35 in pCMV6 vector was from Origene (RC209790). The pGloSensor™-22F cAMP plasmid was from Promega. The plasmid encoding CB1R was generated by inserting the coding sequence of human CB1R into pCAGIG vector. The plasmids encoding Gi1 subunits (αi1, β1, and γ2) were from the cDNA Resource Center. We created Gαi1–Rluc8 using overlap exchange PCR, Rluc8 was inserted into Gαi1 between residue 91 and 92 with SGGGGS linkers similar to a previous design[77]. Venus–β1 was created by replacing YFP with Venus in YFP–β1 using restriction digestion, YFP–β1 plasmid construct was described previously[78].
For microscopic experiments, cells were seeded one day before transfection on poly-D-lysine-coated coverslips in 24-well culture plates. Coverslips were cleaned with extensive 2 M NaOH and 70% ethanol washing steps prior to use. Transient transfection was done with Lipofectamine 2000 (Thermo Fischer) according to the manufacturer’s protocol. After transfection (20–28 h), pharmacological treatment was applied and then combined with immunolabeling. The full procedure was optimized for each investigated protein. In the case of D3R-, CB1R-, and α7-nAchR-expressing cells, all labeling and washing steps were executed in Hanks’ balanced salt solution (Sigma-Aldrich H6648) on live cells, and in Dulbecco’s Phosphate Buffered Saline (Corning, 21-031-CV) on fixed cells. The labeling steps with antibodies, ligands, or fixatives were followed by three washing steps. […] Unless otherwise stated, we used CF568-labeled secondary antibodies.
The HA-D3R-expressing cells were live-stained with anti-HA primary and secondary antibodies for 10 min at room temperature. […] Cells were fixed in 4% PFA for 10 min before imaging. For Supplementary Fig. S5g, Cy5-labeled secondary antibody was applied, without fluorescent ligand treatment. For fluo-cannabinoid binding experiments, all steps were executed at room temperature. […] MAGL pharmacological labeling was performed in culture medium in a 5% CO2 atmosphere at 37 °C. […] Before immunolabeling, cells were washed with 100% methanol three times for 10 min and were blocked with 5% normal donkey serum (NDS) in 0.1 M phosphate buffer (PB; pH 7.4), for 30 min. Anti-GFP immunolabeling was done in 0.1 M PB and immunostained cells were postfixed with 4% PFA before imaging. In the case of α7-nAChR experiments, its chaperon protein, NACHO (TMEM35) was co-transfected in a 10 to 1 receptor:chaperon ratio in order to enhance cell-surface expression of the ion channel[79]. MLA pretreatment and Alexa647-bungarotoxin labeling were done at 4 °C for 20 min. After pharmacological labeling, the cells were fixed with 4% PFA, and subsequent anti-HA-immunolabeling was done at room temperature. Immunolabeling was followed by post-fixation.
To analyze the number of localization points (LPs) in membranes of cultured cells, we merged the dSTORM images obtained from pharmacolabeling (PharmacoSTORM) and immunolabeling (ImmunoSTORM). […]

[7] = biological target: α7-nAchR-HA (Homo sapiens, UniProt P36544)
α7-nAchR-HA, sequence (P36544 23-502): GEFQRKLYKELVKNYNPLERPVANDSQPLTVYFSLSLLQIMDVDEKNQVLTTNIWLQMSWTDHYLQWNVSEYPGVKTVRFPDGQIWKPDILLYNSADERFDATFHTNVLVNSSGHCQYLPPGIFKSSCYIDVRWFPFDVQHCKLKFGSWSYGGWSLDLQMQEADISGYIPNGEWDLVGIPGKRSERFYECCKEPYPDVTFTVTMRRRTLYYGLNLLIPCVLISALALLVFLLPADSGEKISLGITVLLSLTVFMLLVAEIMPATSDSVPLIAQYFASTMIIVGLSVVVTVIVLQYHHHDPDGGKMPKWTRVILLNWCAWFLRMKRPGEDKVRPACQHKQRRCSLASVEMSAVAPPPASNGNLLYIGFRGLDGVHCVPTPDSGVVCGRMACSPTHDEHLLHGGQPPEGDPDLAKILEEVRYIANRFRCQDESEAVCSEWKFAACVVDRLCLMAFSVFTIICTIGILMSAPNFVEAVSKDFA

[8] = log(agonist) vs. response, variable slope

CN1/C(=C/C=C/C=C/C2=[N+](CCCCCC(=O)NCc3cn(CCOc4ccc(C(c5ccc(Cl)cc5)N5CCN(C(=O)OC(C(F)(F)F)C(F)(F)F)CC5)cc4)nn3)c3ccccc3C2(C)C)C(C)(C)c2ccccc21.[Cl-] (centres unmarked) [DH-463]
HILLSLOPE (best-fit) [1]: -0,7836
MAGL activity (%), mean ([1]; 10^-5 M): 5.023%
MAGL activity (%), mean ([1]; 10^-6 M): 10.8061%
MAGL activity (%), mean ([1]; 10^-7 M): 27.8239%
MAGL activity (%), mean ([1]; 10^-8 M): 51.3279%
MAGL activity (%), mean ([1]; 10^-9 M): 91.5194%
MAGL activity (%), mean ([1]; 10^-10 M): 105.132%
LOGIC50 (best-fit) ([1]; concentration in M): -7,938
BOTTOM (best-fit), MAGL activity ([1]; log(inhibitor) vs. response, variable slope): 7,823%
IC50 ([1]; read-out: IC50 (best-fit)): 11.5 nM

CCCN1CCO[C@@H]2c3cc(O)ccc3OC[C@H]21 [PD128907]
Gi1-BRET response (%, norm. to pretreatment) ([2]; PD 128907 10-6.5 M, vehicle pretreatment): 106.065% and 96.3019% and 97.7639%
Gi1-BRET response (%, norm. to pretreatment) ([2]; PD 128907 10-7.5 M, vehicle pretreatment): 94.4647% and 90.0327% and 83.0176%
Gi1-BRET response (%, norm. to pretreatment) ([2]; PD 128907 10-8.5 M, vehicle pretreatment): 62.6732% and 52.2099% and 77.0199%
Gi1-BRET response (%, norm. to pretreatment) ([2]; PD 128907 10-9.5 M, vehicle pretreatment): 23.5448% and 22.9857% and 15.0109%
Gi1-BRET response (%, norm. to pretreatment) ([2]; PD 128907 10^-6 M, vehicle pretreatment): 100%
Gi1-BRET response (%, norm. to pretreatment) ([2]; PD 128907 10^-7 M, vehicle pretreatment): 92.6877% and 91.1582% and 95.9579%
Gi1-BRET response (%, norm. to pretreatment) ([2]; PD 128907 10^-8 M, vehicle pretreatment): 89.6043% and 74.7508% and 92.6073%
Gi1-BRET response (%, norm. to pretreatment) ([2]; PD 128907 10^-9 M, vehicle pretreatment): 56.1354% and 47.8674% and 57.7701%
TOP (best-fit), Gi1-BRET response ([2]; PD 128907, vehicle pretreatment): 95,84%
LOGEC50 (best-fit) ([2]; PD 128907, vehicle pretreatment, concentration in M): -8,980
EC50 ([2]; vehicle pretreatment, n = 3, read-out: EC50 of PD128907): 1.05 nM

CN(C)C(=O)N[C@H]1CC[C@H](CCN2CCN(c3cccc(Cl)c3Cl)CC2)CC1 [cariprazine]
effect on fluo-cariprazine signal in the hilar subregion of the Islands of Calleja [3]: completely eliminated
Fluo-CAR STORM density (LPs/μm2) ([3]; slices with 30 nM Fluo-CAR, Islands of Calleja, per animal): 0.8583 LPs/μm2 and 0.5531 LPs/μm2 and 1.2207 LPs/μm2 and 0.9766 LPs/μm2

CCCCCCC(C)(C)c1cc(O)c2c(c1)OC(C)(C)c1ccc(CNCCCCCCNC(=O)CCCCC[N+]3=C(/C=C/C=C/C=C4/N(C)c5ccc(S(=O)(=O)O)cc5C4(C)C)C(C)(C)c4cc(S(=O)(=O)[O-])ccc43)cc1-2 [fluo-cannabinoid]
Ki [4]: 3.5 nM
HILLSLOPE (best-fit) [5]: 0,9981
Span (best-fit), cAMP reduction [5]: 37,53%
cAMP reduction (%) ([5]; 10-6.5 M): 31.4472% and 32.8666% and 33.3129% and 25.9155% and 23.0595%
cAMP reduction (%) ([5]; 10-8.5 M): -1.6297% and 1.0916% and -1.1492% and -4.3119% and 0.7084%
cAMP reduction (%) ([5]; 10^-6 M): 35.6911% and 25.5164% and 35.8634% and 19.8904% and 28.6228%
cAMP reduction (%) ([5]; 10^-9 M): 0%
LOGEC50 (best-fit) ([5]; concentration in M): -7,482
Emax ([5]; in vitro cAMP assay on CB1R): 36.1%
BOTTOM (best-fit), cAMP reduction [5, 8]: -1,444%
TOP (best-fit), cAMP reduction [5, 8]: 36,09%
EC50 ([5]; read-out: EC50 (best-fit)): 33 nM

CN(CCCNC(=O)CCCCC[N+]1=C(/C=C/C=C/C=C2/N(C)c3ccc(S(=O)(=O)O)cc3C2(C)C)C(C)(C)c2cc(S(=O)(=O)[O-])ccc21)C(=O)N[C@H]1CC[C@@H](CCN2CCN(c3cccc(Cl)c3Cl)CC2)CC1 [fluo-cariprazine]
PharmacoSTORM LPs / ImmunoSTORM LPs (% of D3R), actual mean [6]: 7,203%
PharmacoSTORM LPs / ImmunoSTORM LPs (% of D3R) ([6]; single experiments): 3.466% and 8.432% and 4.243% and 12.6707%

CCN1C[C@]2(COC(=O)c3ccccc3N3C(=O)C[C@H](C)C3=O)CC[C@H](OC)[C@@]34[C@@H]5C[C@H]6[C@H](OC)[C@@H]5[C@](O)(C[C@@H]6OC)[C@@](O)([C@@H](OC)[C@H]23)[C@@H]14 [methyllycaconitine]
effect on PharmacoSTORM signal of Alexa647-α-bungarotoxin [7]: fully prevented
